In patent US20140081017A1, “Histone Deacetylase Inhibitors for Enhancing Activity of Antifungal Agents” (METHYLGENE INC., priority 2012, published 2014):
≈ marks a conversion by molar mass, not a printed value. Read-outs that look alike come from different tables or passages of the source.

Tests used:
Candida albicans = assay: Minimal Inhibitory Concentration (MIC) assay, broth microdilution per CLSI; assay type: cell-based; conditions: Candida albicans, read-out: Minimum Inhibitory Concentrations against Yeast Isolates, Candida albicans;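 further: two read times 24 hr and 48 hr of incubation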
In short: (§1)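 Following CLSI procedure, compounds dissolved in DMSO on the assay day are diluted twofold and added to MOPS-buffered RPMI at pH 7.0. Saline suspensions of the yeasts, matched to 0.5 McFarland, are diluted 1:100 and inoculated, then plates incubate at 35° C for about 24-48 hr.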

Candida glabrata = assay: as above; assay type: cell-based; conditions: Nakaseomyces glabratus, read-out: Minimum Inhibitory Concentrations against Yeast Isolates, Candida glabrata;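 further: two read times 24 hr and 48 hr of incubation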
In short: as §1

Candida parapsilosis = assay: as above; assay type: cell-based; conditions: Lodderomyces parapsilosis, read-out: Minimum Inhibitory Concentrations against Yeast Isolates, Candida parapsilosis;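 further: two read times 24 hr and 48 hr of incubation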
In short: as §1

C. glabrata = assay: Checkerboard FIC assay in combination with fluconazole (MIC alone and in combination, FICI); assay type: cell-based, Candida glabrata; conditions: for FICI of combination resulting in fluconazole MIC of: 2 ug/mL / FICI of combination resulting in fluconazole MIC of: 4 ug/mL / FICI of combination resulting in fluconazole MIC of: 8 ug/mL: FICI calculated using a fluconazole MIC of 16 μg/mL; for FICI of combination resulting in fluconazole MIC of: 2 ug/mL (value in parenthesis) / FICI of combination resulting in fluconazole MIC of: 4 ug/mL (value in parenthesis) / FICI of combination resulting in fluconazole MIC of: 8 ug/mL (value in parenthesis): FICI using a fluconazole MIC of 128 μg/mL; for MIC: Nakaseomyces glabratus; for Concentration of Methylgene compound to synergize fluconazole MIC to 2 ug/mL / Concentration of Methylgene compound to synergize fluconazole MIC to 4 ug/mL / Concentration of Methylgene compound to synergize fluconazole MIC to 8 ug/mL: in combination with fluconazole; for Concentration of Methylgene compound to synergize fluconazole MIC to 2 ug/mL: fluconazole MIC lowered to 2 ug/mL; for Concentration of Methylgene compound to synergize fluconazole MIC to 4 ug/mL: fluconazole MIC lowered to 4 ug/mL; for Concentration of Methylgene compound to synergize fluconazole MIC to 8 ug/mL: fluconazole MIC lowered to 8 ug/mL
In short: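 C. glabrata was tested by CLSI broth microdilution checkerboard, crossing 2-fold dilutions of compound with 2-fold dilutions of fluconazole. The medium was RPMI with 0.165 M MOPS at pH 7.0, inoculated from a 0.5 McFarland suspension diluted 1:100, then incubated about 48 h at 35 °C. Single-agent MICs gave the FIC and FICI values.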

[1] = 24 hr reading (first value of cell 24 hr/48 hr)
[2] = 48 hr reading (second value of cell 24 hr/48 hr)
[3] = MIC of the example compound alone against C. glabrata in the checkerboard assay, approximately 48 hr, read-out: Methylgene MIC
[4] = test compound alone, C. glabrata, approx. 48 hr at 35° C., read-out: Compound MIC

| SMILES | MIC (Candida albicans; [1]) [µg/mL] | MIC (Candida albicans; [2]) [µg/mL] | MIC (Candida glabrata; [1]) [µg/mL] | MIC (Candida glabrata; [2]) [µg/mL] | MIC (Candida parapsilosis; [1]) [µg/mL] | MIC (Candida parapsilosis; [2]) [µg/mL] | FICI of combination resulting in fluconazole MIC of: 2 ug/mL (C. glabrata; C. glabrata) | FICI of combination resulting in fluconazole MIC of: 4 ug/mL (C. glabrata; C. glabrata) | FICI of combination resulting in fluconazole MIC of: 8 ug/mL (C. glabrata; C. glabrata) | FICI of combination resulting in fluconazole MIC of: 2 ug/mL (value in parenthesis) (C. glabrata; C. glabrata) | FICI of combination resulting in fluconazole MIC of: 4 ug/mL (value in parenthesis) (C. glabrata; C. glabrata) | FICI of combination resulting in fluconazole MIC of: 8 ug/mL (value in parenthesis) (C. glabrata; C. glabrata) | MIC (C. glabrata; [3]) [µg/mL] | MIC (C. glabrata; [4]) [µg/mL] | Multiple of compound MIC to synergize fluconazole MIC to 2 ug/mL (C. glabrata; concentration in combination as multiple of the compound's MIC alone, fluconazole MIC 2 ug/mL) | Multiple of compound MIC to synergize fluconazole MIC to 4 ug/mL (C. glabrata; concentration in combination as multiple of the compound's MIC alone, fluconazole MIC 4 ug/mL) | Multiple of compound MIC to synergize fluconazole MIC to 8 ug/mL (C. glabrata; concentration in combination as multiple of the compound's MIC alone, fluconazole MIC 8 ug/mL) | Concentration of Methylgene compound to synergize fluconazole MIC to 2 ug/mL (C. glabrata; C. glabrata) [µg/mL] | Concentration of Methylgene compound to synergize fluconazole MIC to 4 ug/mL (C. glabrata; C. glabrata) [µg/mL] | Concentration of Methylgene compound to synergize fluconazole MIC to 8 ug/mL (C. glabrata; C. glabrata) [µg/mL] |
| --- | --- | --- | --- | --- | --- | --- | --- | --- | --- | --- | --- | --- | --- | --- | --- | --- | --- | --- | --- | --- |
| O=C(Cc1csc(CCCCc2ccccc2)n1)NO [Example 1, N-hydroxy-2-(2-(4-phenylbutyl)thiazol-4-yl)acetamide] | 32 (≈ 110 µM) | 32 (≈ 110 µM) | > 64 | > 64 | 32 (≈ 110 µM) | 32 (≈ 110 µM) | 0.625 | 0.500 | 0.625 | 0.516 | 0.281 | 0.188 | 8 | 8 | (½x) | (¼x) | (⅛x) | 4 | 2 | 1 |
| O=C(Cc1ccc(CCCCc2ccc(C(=O)O)cc2)cc1)NO [Example 14, 4-(4-(4-(2-(hydroxyamino)-2-oxoethyl)phenyl)butyl)benzoic acid] | 16 (≈ 48.9 µM) | > 64 | 32 (≈ 97.7 µM) | 64 (≈ 195 µM) | 32 (≈ 97.7 µM) | > 64 | > 0.563 | > 0.625 | > 0.750 | > 0.516 | > 0.531 | > 0.563 | > 16 | > 16 | – | – | – | 16 | 16 | 16 |
| O=C(Cc1ccc(CCCC(O)c2ccccc2)cc1)NO (stereo not drawn) [Example 25, N-hydroxy-2-(4-(4-hydroxy-4-phenylbutyl)phenyl)acetamide] | > 64 | > 64 | 16 (≈ 53.4 µM) | 64 (≈ 214 µM) | > 64 | > 64 | 0.563 | 0.375 | 0.375 | 0.516 | 0.281 | 0.188 | > 16 | > 16 | – | – | – | 16 | 8 | 4 |
